Test results published in patent US7175872B2, “Pyridinium-Betain compounds for use as taste modulators” (Nestec S.A., priority 2002, dated 2007).
Structures can show the parent of a compound that is named as a salt.

Assays:
Format in all cases: in vivo
[1] = tested on: umami taste of MSG; test: Umami taste detection threshold of MSG/Pyridinium-Betaine mixtures (triangle test, sensory panel); conditions: equimolar mixture with MSG; for Threshold decrease: vs MSG in water 1.5 mmol/L
Experimental: • Sensory panel training: […] Sensory analyses were performed in a sensory panel room at 22-25° C. on three different sessions. • Taste thresholds: The taste thresholds of the tastants or mixtures containing basic tastants plus Pyridinium-Betains were determined in a triangle test using Evian® mineral water as the solvent at a defined pH ([…] and H.-D. Belitz, Z. Lebensm. Unters. Forsch. 1975, 159, 65-72). The samples (3 mL) were presented in order of increasing concentrations (serial 1:1 dilutions). The threshold values evaluated in two different sessions were averaged. […] The taste intensities of aqueous (Evian®) solutions containing a basic tastant, such as glucose and MSG, for example, in constant concentrations and the compounds of the general formula (A), for example […], in various concentrations were compared with those of a solution containing the basic tastant only. To achieve this, triangle tests were performed with two glass vials containing the basic tastant in constant concentrations, and one glass vial containing a stepwise 1:1-diluted mixture of basic […]. […] The relative taste strength (taste enhancing factor) of a mixture containing the basic […] was related to the basic tastants glucose, MSG, or other tastants, respectively, as standard substances, and was determined as the ratio of the concentrations c of iso-intensely tasting solutions of the basic tastant, such as glucose (glc), and the mixture containing tastant plus Pyridinium-Betain, […])=[…] […] This taste enhancing effect is illustrated in examples. Pyridinium-Betaines not only enhance the sweet taste perception, but also the umami taste.

[2] = tested on: salty taste of NaCl; test: Salt taste detection threshold of NaCl/Pyridinium-Betaine mixtures (triangle test, sensory panel); conditions: mixture with NaCl, pH 7.0
Experimental: • Sensory panel training: […] Sensory analyses were performed in a sensory panel room at 22-25° C. on three different sessions. • Taste thresholds: The taste thresholds of the tastants or mixtures containing basic tastants plus Pyridinium-Betains were determined in a triangle test using Evian® mineral water as the solvent at a defined pH ([…] and H.-D. Belitz, Z. Lebensm. Unters. Forsch. 1975, 159, 65-72). The samples (3 mL) were presented in order of increasing concentrations (serial 1:1 dilutions). The threshold values evaluated in two different sessions were averaged. […] The taste intensities of aqueous (Evian®) solutions containing a basic tastant, such as glucose and MSG, for example, in constant concentrations and the compounds of the general formula (A), for example […], in various concentrations were compared with those of a solution containing the basic tastant only. […] The relative taste strength (taste enhancing factor) of a mixture containing the basic […] was related to the basic tastants glucose, MSG, or other tastants, respectively, as standard substances, and was determined as the ratio of the concentrations c of iso-intensely tasting solutions of the basic tastant, such as glucose (glc), and the mixture containing tastant plus Pyridinium-Betain, […])=[…] […] This taste enhancing effect is illustrated in examples.

[3] = tested on: sweet taste of glucose; test: Iso-intensity: relative sweetness of glucose/Alapyridaine mixtures
Experimental: (§1) • Sensory panel training: […] Sensory analyses were performed in a sensory panel room at 22-25° C. on three different sessions. • Taste thresholds: The taste thresholds of the tastants or mixtures containing basic tastants plus Pyridinium-Betains were determined in a triangle test using Evian® mineral water as the solvent at a defined pH ([…] and H.-D. Belitz, Z. Lebensm. Unters. Forsch. 1975, 159, 65-72). The samples (3 mL) were presented in order of increasing concentrations (serial 1:1 dilutions). The threshold values evaluated in two different sessions were averaged. […] The taste intensities of aqueous (Evian®) solutions containing a basic tastant, such as glucose and MSG, for example, in constant concentrations and the compounds of the general formula (A), for example […], in various concentrations were compared with those of a solution containing the basic tastant only. […] The relative taste strength (taste enhancing factor) of a mixture containing the basic […] was related to the basic tastants glucose, MSG, or other tastants, respectively, as standard substances, and was determined as the ratio of the concentrations c of iso-intensely tasting solutions of the basic tastant, such as glucose (glc), and the mixture containing tastant plus Pyridinium-Betain, […])=[…] […]

[4] = tested on: umami taste of MSG; test: Iso-intensity: relative umami taste of MSG/Alapyridaine mixtures; conditions: 1.5 mmol/kg MSG and 6.0 mmol/kg Alapyridaine vs 1.5 mmol/kg MSG
Experimental: as §1

Q: With `CC(C(=O)[O-])[n+]1cc(O)ccc1CO` (stereo not drawn) [Alapyridaine, N-(1-carboxyethyl)-3-hydroxy-6-hydroxymethyl-pyridinium inner salt] as the molecule, how does the Taste quality ([1]; pH 5.0) read?
A: Its Taste quality is “umami”.

Q: And the Umami detection threshold ([1]; pH 5.0)?
A: The Umami detection threshold was 0.4 mmol/kg water.

Q: And the Threshold decrease ([1]; pH 5.0)?
A: The Threshold decrease was 4.0.

Q: What about the Taste quality ([1]; pH 7.0) of the same molecule?
A: Its Taste quality is “umami”.

Q: And the Umami detection threshold ([1]; pH 7.0)?
A: Its Umami detection threshold is 0.4 mmol/kg water.

Q: What about the Threshold decrease ([1]; pH 7.0) of the same molecule?
A: The Threshold decrease was 4.0.

Q: What about the Taste quality ([1]; pH 9.0) of the same molecule?
A: Its Taste quality is “umami”.

Q: And the Umami detection threshold ([1]; pH 9.0)?
A: Its Umami detection threshold is 0.4 mmol/kg water.

Q: And the Threshold decrease ([1]; pH 9.0)?
A: The Threshold decrease was 4.0.

Q: And the Salt detection threshold [2]?
A: The Salt detection threshold was 2.0 mmol/kg water.

Q: What about the Taste quality [2] of the same molecule?
A: Its Taste quality is “salty”.

Q: And the Threshold decrease ([2]; vs NaCl in water 10.0 mmol/L)?
A: The Threshold decrease was 5.0.

Q: And the “relative sweetness (iso-intensity)” value ([3]; 80 mmol/kg glucose and 125 mmol/kg Alapyridaine vs 80 mmol/kg glucose)?
A: The value was 8 -fold.

Q: And the “maximum relative sweetness (iso-intensity)” value ([3]; 267 mmol/kg glucose and 125 mmol/kg Alapyridaine vs reference solution 267 mmol/kg glucose)?
A: The value was 5.3 -fold.

Q: What about the “maximum umami-taste intensity (iso-intensity)” value [4] of the same molecule?
A: The value was 4 -fold.
